Columns and labels:
[1] = test system: Dirofilaria immitis third-stage larvae; test: In vitro assay 4: Dirofilaria immitis (DIROIM L4), motility; settings: 72 h, read-out: EC50 (reduction of motility)
[2] = test system: Dirofilaria immitis microfilariae; test: In vitro assay 3: Dirofilaria immitis microfilariae (DIROIM L1), motility; settings: 72 h, read-out: EC50 (reduction of motility), 72 h incubation
[3] = test system: Litomosoides sigmodontis third-stage larvae; settings: 72 h, read-out: EC50 (reduction of motility)
Experimental: In Vitro Assay 5: Litomosoides sigmodontis (LTMOSI L3)
10 Litomosoides sigmodontis third-stage larvae, which were freshly isolated from the pleural cavity of an infected rodent, were added to wells of a microtitre plate containing a nutrient medium and the test compound in DMSO. Compounds were tested in concentration-response assay in duplicate. Larvae exposed to DMSO and no test compounds were used as negative controls. Larvae were evaluated after 72 h of incubation with the compound. Efficacy was determined as the reduction of motility in comparison to the negative control. Based on the evaluation of a wide concentration range, concentration-response curves as well as EC50-values were calculated.

C. elegans Slo-1a = C. elegans Slo-1a (Caenorhabditis elegans, UniProt Q95V25); settings: pE50 (negative decadic logarithm of EC50), CHO cells expressing C. elegans Slo-1a, voltage sensitive dye
Experimental: In Vitro Assay 1: C. elegans Slo-1a—Action at a Recombinant C. elegans Cell Line
Cells were cultured at 37° C. and 5% CO2 in MEMalpha with Gutamax I (Invitrogen, Nr.: 32571), supplemented with 10% (v/v) heat inactivated fetal bovine serum (Invitrogen, Nr.: 10500), G418 (1 mg/ml, Invitrogen, Nr.: 10131). Cells were detached using Accutase (Sigma, Nr.: A6964).
Membrane Potential Measurements
Laboratory compound testing was performed on 384-well microtiter plates (MTPs, Greiner, Nr.: 781092). 8000 cells/well were plated onto 384-well MTPs and cultured for 20 to 24 hours at 37° C. and 5% CO2. After removal of the cell culture medium, the cells were washed once with tyrode (150 mM NaCl, 0.3 mM KCl, 2 mM CaCl2, 1 mM MgCl2, 0.8 mM NaH2PO4, 5 mM Glucose, 28 mM Hepes, pH 7.4) and then loaded with the voltage sensitive dye of the Membrane Potential Assay Kit diluted in tyrode for 1 h at room temperature.
After starting the measurement of fluorescence using a FLIPR Tetra (Molecular Devices, Exc. 510-545 nm, Emm. 565-625 nm), test compounds were added followed by the addition of KCl tyrode (final assay concentration: 70 mM KCl, 2 mM CaCl2, 1 mM MgCl2, 0.8 mM NaH2PO4, 5 mM Glucose, 28 mM Hepes, pH 7.4, including the voltage sensitive dye). The measurement was completed after 7 minutes.
The data were evaluated by using the ActivityBase XLfit software (IDBS) for curve fitting and calculation of the half-maximal effective concentration (EC50) and are reported as negative decadic logarithm (pE50).

Haemonchus contortus = settings: 120 h, read-out: activity (larval mortality)
Experimental: In Vitro Assay 7: Haemonchus contortus (HAEMCO L3)
Solvent: dimethyl sulfoxide
Approximately 40 larvae of the red stomach worm (Haemonchus contortus) are transferred into a test tube containing compound solution.
After 5 days the percentage of larval mortality is recorded. 100% efficacy means all larvae are killed, 0% efficacy means no larvae are killed.

[4] = test system: Nippostrongylus brasiliensis; test: In vitro assay 2: Nippostrongylus brasiliensis (NIPOBR), acetylcholine esterase readout; settings: read-out: activity (reduction of AChE compared to negative control); for inhibition at 1 µg/mL: 1 μg/ml; for inhibition at 10 µg/mL: 10 μg/ml
Method in brief: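 Readout was acetylcholine esterase activity released into the medium, compared with negative control, after exposing adult worms to compounds at final 10 ppm (10 μg/ml) or 1 ppm (1 μg/ml). Worms were first washed in antibiotic/amphotericin B-containing saline; compounds were dissolved in DMSO.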

[5] = log P by HPLC on reversed phase columns (Method L0); settings: for logP (Method L0)[a] / logP (Method L0) / logP (Method L0)^[a]: HPLC on reversed phase columns
Experimental: Measurement of log P values was performed according to EEC directive 79/831 Annex V.A8 by HPLC (High Performance Liquid Chromatography) on reversed phase columns with the following methods: • ^[a] log P value is determined by measurement of LC-UV, in an acidic range, with 0.1% formic acid in water and acetonitrile as eluent (linear gradient from 10% acetonitrile to 95% acetonitrile). • ^[b] log P value is determined by measurement of LC-UV, in a neutral range, with 0.001 molar ammonium acetate solution in water and acetonitrile as eluent (linear gradient from 10% acetonitrile to 95% acetonitrile).
Calibration was done with straight-chain alkan-2-ones (with 3 to 16 carbon atoms) with known log P values (measurement of log P values using retention times with linear interpolation between successive alkanones).

Cooperia curticei = settings: Cooperia curticei, 120 h, read-out: activity (larval mortality)
Experimental: In Vitro Assay 6: Cooperia curticei (COOPCU L3)
Solvent: dimethyl sulfoxide
Approximately 40 nematode larvae (Cooperia curticei) are transferred into a test tube containing the compound solution.
After 5 days percentage of larval mortality is recorded. 100% efficacy means all larvae are killed; 0% efficacy means no larvae are killed.

Chain of C. elegans Slo-1a (Q95V25 whole entry): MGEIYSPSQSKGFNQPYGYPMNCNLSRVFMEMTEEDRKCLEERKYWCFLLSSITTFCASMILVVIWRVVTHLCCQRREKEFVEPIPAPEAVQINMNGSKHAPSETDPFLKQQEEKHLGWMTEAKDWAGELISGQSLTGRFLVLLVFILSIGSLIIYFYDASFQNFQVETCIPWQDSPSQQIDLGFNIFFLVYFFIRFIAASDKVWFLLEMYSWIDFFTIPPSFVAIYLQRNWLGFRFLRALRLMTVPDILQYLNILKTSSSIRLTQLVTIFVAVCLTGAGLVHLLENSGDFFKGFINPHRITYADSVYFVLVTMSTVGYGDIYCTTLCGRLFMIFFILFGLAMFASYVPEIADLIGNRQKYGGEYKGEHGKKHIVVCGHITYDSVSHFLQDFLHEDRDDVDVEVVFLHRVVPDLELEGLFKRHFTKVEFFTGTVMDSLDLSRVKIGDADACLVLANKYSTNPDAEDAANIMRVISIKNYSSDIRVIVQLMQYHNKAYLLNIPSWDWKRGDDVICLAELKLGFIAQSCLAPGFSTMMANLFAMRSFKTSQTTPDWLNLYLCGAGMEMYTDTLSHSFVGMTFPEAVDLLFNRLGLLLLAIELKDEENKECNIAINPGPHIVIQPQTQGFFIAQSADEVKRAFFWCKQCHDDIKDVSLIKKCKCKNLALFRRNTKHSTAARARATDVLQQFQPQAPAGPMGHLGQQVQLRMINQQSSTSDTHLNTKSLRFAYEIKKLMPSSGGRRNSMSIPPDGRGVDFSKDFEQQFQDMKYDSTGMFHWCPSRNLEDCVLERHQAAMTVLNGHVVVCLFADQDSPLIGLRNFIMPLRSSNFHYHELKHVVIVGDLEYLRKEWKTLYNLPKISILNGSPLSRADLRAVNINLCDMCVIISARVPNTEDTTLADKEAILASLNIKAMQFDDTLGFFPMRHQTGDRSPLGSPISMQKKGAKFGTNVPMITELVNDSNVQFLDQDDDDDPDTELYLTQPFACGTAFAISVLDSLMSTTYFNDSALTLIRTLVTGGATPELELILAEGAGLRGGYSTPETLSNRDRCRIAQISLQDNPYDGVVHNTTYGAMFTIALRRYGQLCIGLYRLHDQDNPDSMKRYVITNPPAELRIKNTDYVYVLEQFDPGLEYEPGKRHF

Compound: O=C(N[C@H]1CCc2ccccc21)c1cnc2c(-c3cc(Cl)cc(Cl)c3)cccc2c1Cl [Example 3, 4-chloro-8-(3,5-dichlorophenyl)-N-[(1S)-2,3-dihydro-1H-inden-1-yl]quinoline-3-carboxamide]
- EC50 [1]: < 1 µg/mL
- EC50 [2]: < 1 µg/mL
- EC50 [3]: < 1 µg/mL
- EC50 (C. elegans Slo-1a): 3.16 to 31.6 nM

Compound: Cc1cc(-c2cc(Cl)cc(Cl)c2)c2ncc(C(=O)N[C@H]3CCOc4ccccc43)c(N(C)C)c2c1 [Example 12]
- EC50 [1]: < 0.1 µg/mL
- EC50 [2]: < 0.1 µg/mL
- EC50 [3]: < 0.1 µg/mL
- mortality at 20 ppm (Haemonchus contortus): 80%
- EC50 (C. elegans Slo-1a): < 3.16 nM
- inhibition at 1 µg/mL [4]: > 80%
- inhibition at 10 µg/mL [4]: > 80%

Compound: CN(C)c1c(C(=O)N[C@H]2CCOc3ccccc32)cnc2c(-c3cccc4[nH]ccc34)cccc12 [Example 73]
- EC50 [1]: < 0.1 µg/mL
- EC50 [2]: < 0.1 µg/mL
- EC50 [3]: < 1 µg/mL
- EC50 (C. elegans Slo-1a): 3.16 to 31.6 nM
- inhibition at 1 µg/mL [4]: > 80%
- inhibition at 10 µg/mL [4]: > 80%

Compound: O=C(N[C@H]1CCOc2ccccc21)c1cnc2c(-c3cc(Cl)cc(Cl)c3)cccc2c1N1CCC1 [Example 135, 4-(azetidin-1-yl)-8-(3,5-dichlorophenyl)-N-[(4S)-3,4-dihydro-2H-chromen-4-yl]quinoline-3-carboxamide]
- EC50 [2]: < 1 µg/mL
- chromatographic logP [5]: 1.9
- mortality at 4 ppm (Haemonchus contortus): 90%
- mortality at 20 ppm (Haemonchus contortus): 100%
- EC50 (C. elegans Slo-1a): < 3.16 nM
- inhibition at 1 µg/mL [4]: > 80%
- inhibition at 10 µg/mL [4]: > 80%
- mortality at 20 ppm (Cooperia curticei): 80%

Compound: CCOC(=O)CN(C)c1c(C(=O)N[C@H]2CCOc3ccccc32)cnc2c(-c3cc(Cl)cc(Cl)c3)cccc12 [Example 137, ethyl N-{8-(3,5-dichlorophenyl)-3-[(4S)-3,4-dihydro-2H-chromen-4-ylcarbamoyl]quinolin-4-yl}-N-methylglycinate]
- EC50 [2]: < 1 µg/mL
- chromatographic logP [5]: 4.8
- mortality at 20 ppm (Haemonchus contortus): 80%
- EC50 (C. elegans Slo-1a): < 3.16 nM
- inhibition at 1 µg/mL [4]: > 80%
- inhibition at 10 µg/mL [4]: > 80%

Compound: CN(C)c1c(C(=O)N[C@H]2CCOc3ccccc32)cnc2c(-c3cccc(Cl)c3)c(F)ccc12 [Example 141, 8-(3-chlorophenyl)-N-[(4S)-3,4-dihydro-2H-chromen-4-yl]-4-(dimethyl-amino)-7-fluoroquinoline-3-carboxamide]
- EC50 [1]: < 0.1 µg/mL
- EC50 [2]: < 0.1 µg/mL
- EC50 [3]: < 0.1 µg/mL
- EC50 (C. elegans Slo-1a): < 3.16 nM
- inhibition at 10 µg/mL [4]: > 80%

Compound: CN(CCN1CCOCC1)c1c(C(=O)N[C@H]2CCOc3ccccc32)cnc2c(-c3cc(Cl)cc(Cl)c3)cccc12 [Example 149]
- logP (Method L0)[a] [5]: 2.2

Compound: CN(CC(=O)O)c1c(C(=O)N[C@H]2CCOc3ccccc32)cnc2c(-c3cc(Cl)cc(Cl)c3)cccc12 [Example 150, N-{8-(3,5-dichlorophenyl)-3-[(4S)-3,4-dihydro-2H-chromen-4-ylcarbamoyl]quinolin-4-yl}-N-methylglycine]
- EC50 [1]: < 1 µg/mL
- EC50 [2]: < 0.1 µg/mL
- chromatographic logP [5]: 3.1
- mortality at 4 ppm (Haemonchus contortus): 80%
- mortality at 20 ppm (Haemonchus contortus): 90%
- EC50 (C. elegans Slo-1a): 3.16 to 31.6 nM
- inhibition at 1 µg/mL [4]: > 80%
- mortality at 20 ppm (Cooperia curticei): 100%

Compound: CN(C)c1c(C(=O)N[C@H]2CCOc3cc(F)ccc32)cnc2c(-c3cc(Cl)cc(Cl)c3)cccc12 [Example 152]
- logP (Method L0)[a] [5]: 3

Compound: CCNc1c(C(=O)N[C@H]2CCOc3ccccc32)cnc2c(-c3cc(Cl)cc(Cl)c3)cccc12 [Example 153]
- logP (Method L0)[a] [5]: 2.1

Compound: CC(C)(C)OC(=O)CNc1c(C(=O)N[C@H]2CCOc3ccccc32)cnc2c(-c3cc(Cl)cc(Cl)c3)cccc12 [Example 182]
- logP (Method L0) [5]: 3.3

Compound: CN(CC(=O)OC(C)(C)C)c1c(C(=O)N[C@H]2CCOc3ccccc32)cnc2c(-c3cc(Cl)cc(Cl)c3)cccc12 [Example 183]
- logP (Method L0) [5]: 6

Compound: CCCNc1c(C(=O)N[C@H]2CCOc3ccccc32)cnc2c(-c3cc(Cl)cc(Cl)c3)cccc12 [Example 184]
- logP (Method L0) [5]: 3

Compound: NCCNc1c(C(=O)N[C@H]2CCOc3ccccc32)cnc2c(-c3cc(Cl)cc(Cl)c3)cccc12 [Example 185]
- logP (Method L0) [5]: 2

Compound: O=C(N[C@H]1CCOc2ccccc21)c1cnc2c(-c3cc(Cl)cc(Cl)c3)cccc2c1-n1ccnn1 [Example 188, 8-(3,5-dichlorophenyl)-N-[(4S)-3,4-dihydro-2H-chromen-4-yl]-4-(1H-1,2,3-triazol-1-yl)quinoline-3-carboxamide]
- EC50 [2]: < 0.1 µg/mL
- chromatographic logP [5]: 4.5
- EC50 (C. elegans Slo-1a): 3.16 to 31.6 nM

Compound: O=C(N[C@H]1CCOc2ccccc21)c1cnc2c(-c3cc(Cl)cc(Cl)c3)cccc2c1-n1nccn1 [Example 189, 8-(3,5-dichlorophenyl)-N-[(4S)-3,4-dihydro-2H-chromen-4-yl]-4-(2H-1,2,3-triazol-2-yl)quinoline-3-carboxamide]
- EC50 [2]: < 0.1 µg/mL
- chromatographic logP [5]: 5
- EC50 (C. elegans Slo-1a): < 3.16 nM
- inhibition at 1 µg/mL [4]: > 80%

Compound: CON(C)c1c(C(=O)N[C@H]2CCOc3ccccc32)cnc2c(-c3ccccc3Cl)cccc12 [Example 248]
- logP (Method L0) [5]: 3.41

Compound: CON(C)c1c(C(=O)N[C@H]2CCOc3ccccc32)cnc2c(-c3cccc(Cl)c3Cl)cccc12 [Example 249]
- logP (Method L0) [5]: 3.99

Compound: CON(C)c1c(C(=O)N[C@H]2CCOc3ccccc32)cnc2c(-c3cc(Cl)cc(Cl)c3)cccc12 [Example 250]
- logP (Method L0) [5]: 4.87

Compound: CN(c1c(C(=O)N[C@H]2CCOc3ccccc32)cnc2c(-c3ccccc3Cl)cccc12)C1CC1 [Example 252]
- logP (Method L0) [5]: 2.23

Compound: CN(c1c(C(=O)N[C@H]2CCOc3ccccc32)cnc2c(-c3cccc(Cl)c3Cl)cccc12)C1CC1 [Example 253]
- logP (Method L0) [5]: 2.8

Compound: CN(c1c(C(=O)N[C@H]2CCOc3ccccc32)cnc2c(-c3cc(Cl)cc(Cl)c3)cccc12)C1CC1 [Example 254]
- logP (Method L0) [5]: 3.81

Compound: CCOP(=O)(CN(C)c1c(C(=O)N[C@H]2CCOc3ccccc32)cnc2c(-c3cc(Cl)cc(Cl)c3)cccc12)OCC [Example 285]
- logP (Method L0) [5]: 4.62

Compound: O=C(N[C@H]1CCOc2ccccc21)c1cnc2c(-c3cc(Cl)cc(Cl)c3)cccc2c1N1CC2CC(C1)O2 [Example 300]
- logP (Method L0) [5]: 2.6

Compound: O=C(N[C@H]1CCOc2ccccc21)c1cnc2c(-c3cc(Cl)cc(Cl)c3)cccc2c1N1CC2COCC(C1)O2 [Example 301]
- logP (Method L0) [5]: 3.3

Compound: Cn1c(=O)n(C)n(-c2c(C(=O)N[C@H]3CCOc4ccccc43)cnc3c(-c4cccc(Cl)c4Cl)cccc23)c1=O [Example 321]
- logP (Method L0)^[a] [5]: 3.37

Compound: CN(CCN1CCCC1=O)c1c(C(=O)N[C@H]2CCOc3ccccc32)cnc2c(-c3cc(Cl)cc(Cl)c3)cccc12 [Example 328]
- logP (Method L0)^[a] [5]: 3.3

Compound: CN(c1c(C(=O)N[C@H]2CCOc3ccccc32)cnc2c(-c3cccc(Cl)c3Cl)cccc12)C1COC1 [Example 331, 8-(2,3-dichlorophenyl)-N-[(4S)-3,4-dihydro-2H-chromen-4-yl]-4-[methyl(oxetan-3-yl)amino]-quinoline-3-carboxamide]
- EC50 [1]: < 0.1 µg/mL
- EC50 [2]: < 0.1 µg/mL
- chromatographic logP [5]: 3.14
- mortality at 20 ppm (Haemonchus contortus): 100%
- EC50 (C. elegans Slo-1a): < 3.16 nM
- inhibition at 1 µg/mL [4]: > 80%
- mortality at 20 ppm (Cooperia curticei): 90%

Compound: CCc1cc(Cl)cc(-c2cccc3c(CC)c(C(=O)N[C@H]4CCOc5ccccc54)cnc23)c1 [Example 351, 8-(3-chloro-5-ethylphenyl)-N-[(4S)-3,4-dihydro-2H-chromen-4-yl]-4-ethylquinoline-3-carboxamide]
- EC50 [1]: < 0.1 µg/mL
- EC50 [2]: < 0.1 µg/mL
- chromatographic logP [5]: 5.1
- EC50 (C. elegans Slo-1a): < 3.16 nM

Compound: O=C(N[C@H]1CCOc2ccccc21)c1cnc2c(-c3cc(Cl)cc(Cl)c3)cccc2c1C1CC1 [Example 358]
- logP (Method L0)^[a] [5]: 4.9

Compound: CCSc1c(C(=O)N[C@H]2CCOc3ccccc32)cnc2c(-c3cccc(Cl)c3Cl)cccc12 [Example 366]
- logP (Method L0)^[a] [5]: 4.79

Compound: CCSc1c(C(=O)N[C@H]2CCOc3ccccc32)cnc2c(-c3cc(Cl)cc(Cl)c3)cccc12 [Example 367]
- logP (Method L0)^[a] [5]: 5.48

Compound: CC[S+]([O-])c1c(C(=O)N[C@H]2CCOc3ccccc32)cnc2c(-c3cccc(Cl)c3Cl)cccc12 (stereo partly drawn) [Example 368]
- logP (Method L0)^[a] [5]: 3.76

Compound: CC[S+]([O-])c1c(C(=O)N[C@H]2CCOc3ccccc32)cnc2c(-c3cc(Cl)cc(Cl)c3)cccc12 (stereo partly drawn) [Example 370]
- logP (Method L0)^[a] [5]: 4.44

Compound: CCS(=O)(=O)c1c(C(=O)N[C@H]2CCOc3ccccc32)cnc2c(-c3cc(Cl)cc(Cl)c3)cccc12 [Example 371]
- logP (Method L0)^[a] [5]: 4.54

Compound: Cc1nc2c(-c3cccc(Cl)c3Cl)cccc2c(N(C)C)c1C(=O)N[C@H]1CCOc2ccccc21 [Example 523]
- logP (Method L0)^[a] [5]: 2.11

Compound: O=C(N[C@H]1CCOc2ccccc21)c1cnc2c(-c3cc(F)cc(F)c3F)c(F)ccc2c1N1CCOCC1 [Example 540]
- logP (Method L0)^[a] [5]: 3.72

Compound: CNc1c(C(=O)N[C@H]2CCOc3ccccc32)cnc2c(-c3cc(F)c(OC(F)F)c(F)c3)c(F)ccc12 [Example 547]
- logP (Method L0)^[a] [5]: 1.81

Compound: O=C(N[C@H]1CCOc2ccccc21)c1cnc2c(-c3cc(F)cc(F)c3F)c(Cl)ccc2c1N1CCOCC1 [Example 576]
- logP (Method L0)^[a] [5]: 3.90

From patent US10889573B2, “Anthelmintic quinoline-3-carboxamide derivatives” (Bayer Animal Health GMBH, priority 2016, dated 2021)
